Test system: human primary T-cells, IL-2 stimulated proliferation (JAK-1 and JAK-3 dependent; reported as JAK3 activity)
Assay: Human primary T-cell proliferation stimulated by IL-2 (Example 3)
Format: cell-based
Details: Homo sapiens, T-cell, tested under conditions described in Example 3 (IL-2 stimulated human primary T-cell proliferation); read-out: ability to inhibit JAK3 activity, IC50 range (Table V)
Summary of the method: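 Peripheral-blood human T-cells pre-activated via TCR/CD28, IL-2-starved overnight, then cultured 72 h at 37 °C with compound in Yssel's medium containing IL-2 (80 U/mL in cell suspension). Proliferation read as viable-cell ATP by CellTiter-Glo luminescence; reduction versus control taken as JAK pathway inhibition.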

Row | Structure (SMILES) | IC50 [nM]
1 | COc1ccc(Nc2ncc(C)c(Nc3ccc4oc(=O)[nH]c4c3)n2)cn1 [II-123, N2-(2-methoxypyridin-5-yl)-5-methyl-N4-(2-oxo-2,3-dihydro-1,3-benzoxazol-5-yl)-2,4-pyrimidinediamine] | < 500
2 | COc1cc(Nc2ncc(C)c(Nc3ccc4oc(=O)[nH]c4c3)n2)cc(C(C)NC(C)C)c1 (stereo not drawn) [Compound I-231, 5-(2-(3-(1-(isopropylamino)ethyl)-5-methoxyphenylamino)-5-methylpyrimidin-4-ylamino)benzo[d]oxazol-2(3H)-one] | < 500
3 | Cc1ccccc1Nc1ncc(C)c(Nc2ccc3oc(=O)[nH]c3c2)n1 [Compound I-499, 5-(2-(o-toluidino)-5-methylpyrimidin-4-ylamino)benzo[d]oxazol-2(3H)-one] | 500 to 5000
4 | CCCn1c(=O)oc2ccc(Nc3nc(Nc4ccc(N5CCN(C)CC5)nc4)ncc3C)cc21 [II-4, N4-(3-n-propylbenzo[d]oxazol-2(3H)-on-5-yl)-N2-(6-(4-methylpiperazin-1-yl)pyridin-3-yl)-5-methylpyrimidine-2,4-diamine] | < 500
5 | Cc1cnc(Nc2ccc(C(=O)NC3CCC3)c(C(F)(F)F)c2)nc1Nc1ccc2oc(=O)[nH]c2c1 [Compound I-218, N-cyclobutyl-4-(5-methyl-4-(2-oxo-2,3-dihydrobenzo[d]oxazol-5-ylamino)pyrimidin-2-ylamino)-2-(trifluoromethyl)benzamide] | < 500
6 | Cc1cnc(Nc2ccc(F)c(S(C)(=O)=O)c2)nc1Nc1cc(C)c2oc(=O)[nH]c2c1 [Compound I-245, 5-(2-(4-fluoro-3-(methylsulfonyl)phenylamino)-5-methylpyrimidin-4-ylamino)-7-methylbenzo[d]oxazol-2(3H)-one] | < 500
7 | Cc1cnc(Nc2ccc3c(c2)CN(O)C3)nc1Nc1ccc2oc(=O)[nH]c2c1 [III-2, N4-(benzo[d]oxazol-2(3H)-on-5-yl)-N2-(2-hydroxyisoindolin-5-yl)-5-methylpyrimidine-2,4-diamine] | < 500
8 | Cc1cnc(Nc2cncc(Br)c2)nc1Nc1ccc2oc(=O)[nH]c2c1 [II-77, 5-(2-(5-bromopyridin-3-ylamino)-5-methylpyrimidin-4-ylamino)benzo[d]oxazol-2(3H)-one] | 500 to 5000
9 | Cc1cnc(Nc2cnc(C3CC4CCC(C3)N4)c(C)c2)nc1Nc1ccc2oc(=O)[nH]c2c1 (stereo not drawn) [II-66, 5-(2-(6-(8-aza-bicyclo[3.2.1]octan-3-yl)-5-methylpyridin-3-ylamino)-5-methylpyrimidin-4-ylamino)benzo[d]oxazol-2(3H)-one] | 500 to 5000
10 | Cc1cnc(Nc2ccc(N3CCO[C@H](C)C3)nc2)nc1Nc1ccc2oc(=O)[nH]c2c1 [II-135, 5-methyl-N2-[2-(2R-methylmorpholino)pyridin-5-yl]-N4-(2-oxo-2,3-dihydro-1,3-benzoxazol-5-yl)-2,4-pyrimidinediamine] | < 500
11 | Cc1cnc(Nc2ccc(N3CCN(C)[C@H](C)C3)nc2)nc1Nc1ccc2oc(=O)[nH]c2c1 [II-55, (R)-5-(2-(6-(3,4-dimethylpiperazin-1-yl)pyridin-3-ylamino)-5-methylpyrimidin-4-ylamino)benzo[d]oxazol-2(3H)-one] | < 500
12 | Cc1cc(F)cc(Nc2ncc(C)c(Nc3ccc4oc(=O)[nH]c4c3)n2)c1 [Compound I-199, 5-[2-(3-Fluoro-5-methyl-phenylamino)-5-methyl-pyrimidin-4-ylamino]-3H-benzooxazol-2-one] | < 500
13 | Cc1cnc(Nc2ccc(N3CCN(C(=O)OC(F)(F)F)CC3)nc2)nc1Nc1ccc2oc(=O)[nH]c2c1 [II-8, N4-(benzo[d]oxazol-2(3H)-on-5-yl)-N2-(6-(4-trifluoromethoxycarbonylpiperazin-1-yl)pyridin-3-yl)-5-methylpyrimidine-2,4-diamine] | < 500
14 | CCN(CC)CCNC(=O)c1ccc(Nc2ncc(C)c(Nc3ccc4oc(=O)[nH]c4c3)n2)cc1 [Compound I-127, N-(2-Diethylamino-ethyl)-4-[5-methyl-4-(2-oxo-2,3-dihydro-benzooxazol-5-ylamino)-pyrimidin-2-ylamino]-benzamide] | < 500
15 | Cc1cnc(Nc2cccc(C)c2C)nc1Nc1ccc2oc(=O)[nH]c2c1 [Compound I-500, 5-(2-(2,3-dimethylphenylamino)-5-methylpyrimidin-4-ylamino)benzo[d]oxazol-2(3H)-one] | 500 to 5000
16 | Cc1ccc(Nc2ncc(C)c(Nc3ccc4oc(=O)[nH]c4c3)n2)cc1C [Compound I-178, 5-[2-(3,4-Dimethyl-phenylamino)-5-methyl-pyrimidin-4-ylamino]-3H-benzooxazol-2-one] | < 500
17 | Cc1cnc(Nc2ccc(N3CCN(CC4CC4)[C@H](C)C3)nc2)nc1Nc1ccc2oc(=O)[nH]c2c1 [II-56, (R)-5-(2-(6-(4-(cyclopropylmethyl)-3-methylpiperazin-1-yl)pyridin-3-ylamino)-5-methylpyrimidin-4-ylamino)benzo[d]oxazol-2(3H)-one] | < 500
18 | Cc1cnc(Nc2ccc(OCCN3CCOCC3)cc2)nc1Nc1ccc2oc(=O)[nH]c2c1 [Compound I-192, 5-{5-Methyl-2-[4-(2-morpholin-4-yl-ethoxy)-phenylamino]-pyrimidin-4-ylamino}-3H-benzooxazol-2-one] | < 500
19 | Cc1cnc(Nc2ccc(C(C)N3CCCC3)cc2)nc1Nc1ccc2oc(=O)[nH]c2c1 (stereo not drawn) [Compound I-203, 5-(5-methyl-2-(4-(1-(pyrrolidin-1-yl)ethyl)phenylamino)pyrimidin-4-ylamino)benzo[d]oxazol-2(3H)-one] | < 500
20 | Cc1cnc(Nc2ccc3c(c2)CCC(N2CCCC2)CC3)nc1Nc1ccc2oc(=O)[nH]c2c1 (stereo not drawn) [IV-1, N4-(benzo[d]oxazol-2(3H)-on-5-yl)-N2-(7-(pyrrolidin-1-yl)-6,7,8,9-tetrahydro-5H-benzo[7]annulen-2-yl)-5-methylpyrimidine-2,4-diamine] | < 500
21 | Cc1cnc(Nc2cccc(C(F)(F)F)c2C)nc1Nc1ccc2oc(=O)[nH]c2c1 [Compound I-518, 5-[5-Methyl-2-(2-methyl-3-trifluoromethyl-phenylamino)-pyrimidin-4-ylamino]-3H-benzooxazol-2-one] | < 500
22 | Cc1cnc(Nc2cccc(C(C)N3CCCC3)c2)nc1Nc1ccc2oc(=O)[nH]c2c1 (stereo not drawn) [Compound I-212, 5-(5-methyl-2-(3-(1-(pyrrolidin-1-yl)ethyl)phenylamino)pyrimidin-4-ylamino)benzo[d]oxazol-2(3H)-one] | < 500
23 | Cc1cnc(Nc2ccc(N3CCCC3)nc2)nc1Nc1ccc2oc(=O)[nH]c2c1 [II-71, 5-(5-methyl-2-(6-(pyrrolidin-1-yl)pyridin-3-ylamino)pyrimidin-4-ylamino)benzo[d]oxazol-2(3H)-one] | < 500

Same assay, conditions: tested under conditions described in Example 3 (IL-2 stimulated human primary T-cell proliferation); read-out: ability to inhibit JAK3 activity, IC50 range (Table V)

Row | Structure (SMILES) | IC50 [nM]
24 | COc1cc(F)cc(Nc2ncc(C)c(Nc3ccc4oc(=O)[nH]c4c3)n2)c1 [Compound I-352, N2-(3-fluoro-5-methoxy)phenyl-5-methyl-N4-(2-oxo-2,3-dihydro-1,3-benzoxazol-5-yl)-2,4-pyrimidinediamine] | < 500
25 | Cc1cnc(Nc2ccc(N3CCC(F)(F)CC3)c(C(F)(F)F)c2)nc1Nc1ccc2oc(=O)[nH]c2c1 [Compound I-276, N2-[4-(4,4-difluoropiperidinyl)-3-trifluoromethyl]phenyl-5-methyl-N4-(2-oxo-2,3-dihydro-1,3-benzoxazol-5-yl)-2,4-pyrimidinediamine] | < 500
26 | O=c1[nH]c2cc(Nc3nc(Nc4ccc(N5CCOCC5)nc4)ncc3F)ccc2o1 [II-18, N4-(benzo[d]oxazol-2(3H)-on-5-yl)-N2-((2-morpholinyl)pyridin-5-yl)-5-fluoropyrimidine-2,4-diamine] | < 500
27 | Cc1cnc(Nc2cccc(S(=O)(=O)C(F)(F)F)c2)nc1Nc1ccc2oc(=O)[nH]c2c1 [Compound I-118, N4-(benzo[d]oxazol-2(3H)-on-5-yl)-N2-(3-trifluoromethylsulfonyl)phenyl-5-methylpyrimidine-2,4-diamine] | < 500
28 | Cc1cnc(Nc2ccc(C#N)cc2)nc1Nc1ccc2[nH]c(=O)[nH]c2c1 [Compound I-29, N4-(benzimidazolin-2-on-5-yl)-N2-(4-cyanophenyl)-5-methylpyrimidine-2,4-diamine] | > 10000
29 | Cc1cnc(Nc2ccc(S(=O)(=O)C(F)(F)F)cc2)nc1Nc1ccc2oc(=O)[nH]c2c1 [Compound I-117, N4-(benzo[d]oxazol-2(3H)-on-5-yl)-N2-(4-trifluoromethylsulfonyl)phenyl-5-methylpyrimidine-2,4-diamine] | < 500
30 | Cc1cnc(Nc2ccc(OC(C)(C)C#N)cc2)nc1Nc1ccc2oc(=O)[nH]c2c1 [Compound I-334, N2-[4-(1-cyano-1-methyl)ethoxy]phenyl-5-methyl-N4-(2-oxo-2,3-dihydro-1,3-benzoxazol-5-yl)-2,4-pyrimidinediamine] | < 500
31 | Cc1cnc(Nc2ccc(N3CCSCC3)c(C#N)c2)nc1Nc1ccc2oc(=O)[nH]c2c1 [Compound I-339, N2-(3-cyano-4-thiomorpholino)phenyl-5-methyl-N4-(2-oxo-2,3-dihydro-1,3-benzoxazol-5-yl)-2,4-pyrimidinediamine] | < 500
32 | CC(=O)N(C)c1ccc(Nc2ncc(C)c(Nc3ccc4oc(=O)[nH]c4c3)n2)cc1 [Compound I-309, N2-[4-(N-acetyl-N-methyl)amino]phenyl-5-methyl-N4-(2-oxo-2,3-dihydro-1,3-benzoxazol-5-yl)-2,4-pyrimidinediamine] | < 500
33 | Cc1cnc(Nc2cc(F)c(OC(C)(C)C(N)=O)c(F)c2)nc1Nc1ccc2oc(=O)[nH]c2c1 [Compound I-395, N2-[4-(1-aminocarbonyl-1-methyl)ethoxy-3,5-difluoro]phenyl-5-methyl-N4-(2-oxo-2,3-dihydro-1,3-benzoxazol-5-yl)-2,4-pyrimidinediamine] | < 500

Reference: patent publication US10005767B2, “Compositions and methods for inhibition of the JAK pathway” (Rigel Pharmaceuticals, Inc., priority 2009, dated 2018)
